The text below walks through data of patent US5763453A, “Condensed indan derivatives and salts thereof” (Taiho Pharmaceutical Co., Ltd., priority 1995, dated 1998).

≈ marks a conversion by molar mass, not a printed value. Where a name gives a salt, the structure may show the parent alone.

In this assay the test system is P 388 mouse leukemia cell line. Put plainly: Cytocidal effect on P 388 mouse leukemia cells (crystal violet cytometry, three days' incubation). It is filed as cell-based. Particulars: P388, 72 h, 2×10^3 cells/well, read-out: IC50 (concentration at which the cell count is 50% less than that of the control). The procedure:
Cytocidal Effect A 96-well plate was innoculated with 2×10^3 cells/well of P 388 mouse leukemia cell line. The compound of the present invention was dissoved in purified water or dimethylsulfoxide, and the solution was diluted with medium to various concentrations and placed into respective wells and incubated. After three day's incubation, the plate was fixed with glutaraldehyde and stained with crystal violet for cytometry.
`CN(C)CCCNc1c2c(nc3cc(O)ccc13)-c1ccccc1C2=O` [Compound 7-a]: the IC50 is 0.16 µg/mL (≈ 0.461 µM). Turning to `COc1ccc2c(c1)C(=O)c1c-2nc2ccccc2c1NCCN(C)C.Cl.Cl` [Compound 1, 10-(((dimethylamino)ethyl)amino)-2-methoxy-11H-indeno[1,2-b]quinolin-11-one dihydrochloride], the IC50 was 0.34 µg/mL. As for `CN(C)CCNc1c2c(nc3ccccc13)-c1cc(O)ccc1C2=O` [Compound 3-a], the figure is 0.15 µg/mL (≈ 0.45 µM); as for `COc1ccc2nc3c(c(N4CCN(C)CC4)c2c1)C(=O)c1ccccc1-3` [Compound 13], 0.37 µg/mL (≈ 1.03 µM); as for `CN(C)CCNc1c2c(nc3ccccc13)-c1ccc(O)cc1C2=O.Cl.Cl` [Compound 2, 10-(((dimethylamino)ethyl)amino)-2-hydroxy-11H-indeno[1,2-b]quinolin-11-one dihydrochloride], 0.15 µg/mL. The figure for `COc1ccc2c(NCCN(C)C)c3c(nc2c1)-c1ccccc1C3=O` [Compound 4] is 0.25 µg/mL (≈ 0.72 µM); for `O=C1c2ccccc2-c2nc3ccc(O)cc3c(N3CCC(N4CCCCC4)CC3)c21` [Compound 16-a] it is 0.43 µg/mL (≈ 1.04 µM).

Turning to `CN1CCN(c2c3c(nc4ccc(O)cc24)-c2ccccc2C3=O)CC1` [Compound 14], the IC50 turned out to be 0.22 µg/mL (≈ 0.637 µM). In the case of `CN(C)CCNc1c2c(nc3cc(O)ccc13)-c1ccccc1C2=O` [Compound 5], the IC50 was 0.052 µg/mL (≈ 0.156 µM).

For the compound `CCN(CC)CCSc1c2c(nc3ccc(O)cc13)-c1ccccc1C2=O` [Compound 10-a], the IC50 turned out to be 0.42 µg/mL (≈ 1.11 µM). Regarding `CCN(CC)CCOc1c2c(nc3ccc(O)cc13)-c1ccccc1C2=O` [Compound 11, 10-(((diethylamino)ethoxy)-8-hydroxy-11H-indeno[1,2-b]quinolin-11-one hydrochloride], the IC50 was 0.096 µg/mL. The figure for `CN(C)CCNc1c2c(nc3ccc(O)cc13)-c1ccccc1C2=O` [Compound 12] is 0.16 µg/mL (≈ 0.48 µM).
